Experimental data published in patent US20230293526A1, “METHOD FOR TREATING CANCER WITH A REVERSE TRANSCRIPTASE INHIBITOR” (PrimeFour Therapeutics, Inc., priority 2020, published 2023).
pIC50: −log10 of the molar value. Read-outs that look alike come from different tables or passages of the source.

System: human LINE-1
Assay: Human LINE-1 (L1) retrotransposition dual-luciferase reporter assay in HeLa cells
Type: cell-based
Settings: read-out: Human LINE-1 IC50 (Human L1 activity inhibition)
Experimental: Representative compounds were tested for inhibition of retrotransposition activity of human LINE-1 (L1) retrotransposition reporter assay in HeLa cells according to the following procedure.
Human Cervical Adenocarcinoma Cells (HeLa) were cultured in Dulbecco's Modified Eagle's Medium (DMEM) containing 4500 mg/L glucose, L-glutamine, sodium pyruvate and sodium bicarbonate, supplemented with 10% of heat inactivated fetal bovine serum (FBS). Cells were grown at 37° C. in an atmosphere of 5% CO2. The dual luciferase-encoding plasmid pYX017 was provided by Prof Wenfeng An (Xie, et al., 2011, Nucleic Acids Res).
The reporter assay was performed in 96-well white, optical bottom plates (Thermo Fisher, 165306). 24 hours prior to transfection, HeLa cells were seeded in a density of 2,500 cells per well, in 50 μL of DMEM, 10% FBS media volume. Cells were incubated at 37° C. in an atmosphere of 5% CO2. Seeding was optimized to achieve approximately 30% cell confluency on the day of transfection. A transfection mix was prepared by combining transfection reagent FuGENE® HD (Promega, E2311) and plasmid DNA (100 ng per well) in a 3:1 ratio, in OpiMEM media (Thermo Fisher, 31985062). Next, 5 μL of the transfection mix was combined with 20 μL of DMEM, 10% FBS media, and 25 μL of this mix was added into each well of an assay plate. In each assay plate one column remained untransfected to serve as a blank luminescence signal.
Serial dilution of test compounds was performed in DMSO and transferred to medium. Next, 25 μL of media-diluted compounds series were transferred to an assay plate containing cells and transfection media. The final concentration of DMSO in treated wells was 0.2%. Serial dilutions of compounds were added to an assay plate immediately after transfection. Compounds were tested in triplicates. The assay plate was then incubated with transfection reagent and compounds at 37° C. in an atmosphere of 5% CO2 for 72 hours.
Luciferase reporter activity was quantified with the Dual-Luciferase® Reporter Assay System (Promega) following the manufacturer's manual, with a passive lysis buffer volume increased to 30 μL and lysis incubation time increased to 20 min at room temperature with gentle shaking, to ensure complete cell lysis. Luminescence was measured using a SpectraMax i3×Multi-Mode Microplate Reader, with integration times of 100 ms and 10 ms applied to measure FLuc and RLuc signals, respectively. Relative LNE-1 activity was calculated as Firefly signal/Renilla signal*10,000. In order to determine IC50 values for each compound, dose response data were fit to a logistic using non-linear regression.

Compound `Cc1cn([C@H]2C=C[C@@H](CO)O2)c(=O)[nH]c1=O` [Stavudine, reference compound] has a pIC50 (Homo sapiens, HeLa, 72 h) of 6.12.

In the case of `Cc1ccnc2c1NC(=O)c1cccnc1N2C1CC1` [Nevirapine, reference compound], the pIC50 (Homo sapiens, HeLa, 72 h) was under 4.30.

`CC(C)OC(=O)OCOP(=O)(CO[C@H](C)Cn1cnc2c(N)ncnc21)OCOC(=O)OC(C)C` [Tenofovir Disoproxil, reference compound] gave a pIC50 (Homo sapiens, HeLa, 72 h) of 6.72.

`C=C[C@]1(CO)O[C@@H](n2cnc3c(N)nc(F)nc32)C[C@@H]1O` [compound 20, (2R,3S,5R)-5-(6-amino-2-fluoro-9H-purin-9-yl)-2-(hydroxymethyl)-2-vinyltetrahydrofuran-3-ol] gave a pIC50 (Homo sapiens, HeLa, 72 h) of 7.96.

`C#C[C@]1(CO)O[C@@H](n2cnc3c(N)nc(N)nc32)C[C@@H]1O` [compound 12] gave a pIC50 (72 hours) of 8.21.

`C#C[C@]1(CO)O[C@@H](n2cnc3c(N)ncnc32)C[C@@H]1O` [compound 23] was tested, and the pIC50 (Homo sapiens, HeLa, 72 h) was under 4.30.

Compound `C#C[C@]1(CO)O[C@@H](n2cc(Br)c(=O)[nH]c2=O)C[C@@H]1O` [compound 4] has a pIC50 (Homo sapiens, HeLa, 72 h) of 6.31.

`Nc1nc(=O)n([C@@H]2CS[C@H](CO)O2)cc1F` [Emtricitabine (FTC), Emtricitabine, reference compound] showed a pIC50 (Homo sapiens, HeLa, 72 h) of 6.32.

`CC(C)OC(=O)[C@H](C)N[P@](=O)(CO[C@H](C)Cn1cnc2c(N)ncnc21)Oc1ccccc1` [Tenofovir Alafenamide (TAF), Tenofovir Alafenamide, reference compound] gave a pIC50 (Homo sapiens, 72 hours) of 8.00.

`Nc1ccn([C@H]2CO[C@@H](CO)S2)c(=O)n1` [Apricitabine, reference compound] was tested, and the pIC50 (Homo sapiens, HeLa, 72 h) was 5.20.

Work on `C#C[C@@]1(CO)C=C[C@H](n2cnc3c(N)nc(F)nc32)O1` [compound 19] yielded a pIC50 (Homo sapiens, HeLa, 72 h) of under 4.90.

`C=C[C@@]1(CO)C=C[C@H](n2cc(C)c(=O)[nH]c2=O)O1` [compound 18] gave a pIC50 (Homo sapiens, HeLa, 72 h) of 4.90.

Compound `C#C[C@@]1(CO)C=C[C@H](n2cc(Br)c(=O)[nH]c2=O)O1` [compound 17] has a pIC50 (Homo sapiens, HeLa, 72 h) of 6.04.

`C#C[C@]1(CO)O[C@@H](n2cc(C)c(N)nc2=O)C[C@@H]1O` [compound 6] gave a pIC50 (Homo sapiens, HeLa, 72 h) of 4.73.

`Nc1ccn([C@H]2CC[C@@H](CO)O2)c(=O)n1` [Zalcitabine, reference compound] showed a pIC50 (Homo sapiens, HeLa, 72 h) of 7.18.

Work on `O=C1Nc2ccc(Cl)cc2[C@@](C#CC2CC2)(C(F)(F)F)O1` [Efavirenz, reference compound] yielded a pIC50 (Homo sapiens, HeLa, 72 h) of under 4.30.

For `C[C@H](Cn1cnc2c(N)ncnc21)OCP(=O)(O)O` [Tenofovir, reference compound], the pIC50 (72 hours) was 5.57.

In the case of `CC[C@]1(CO)O[C@@H](n2cc(C)c(=O)[nH]c2=O)C[C@@H]1O` [compound 26], the pIC50 (Homo sapiens, HeLa, 72 h) was 5.69.

With `CC#C[C@]1(CO)C=C[C@H](n2cc(C)c(=O)[nH]c2=O)O1` [compound 16] the pIC50 (Homo sapiens, HeLa, 72 h) was under 4.60.

Compound `Nc1ncnc2c1ncn2CCOCP(=O)(O)O` [Adefovir, reference compound] has a pIC50 (Homo sapiens, HeLa, 72 h) of under 5.20.

Compound `O=c1[nH]cnc2c1ncn2[C@H]1CC[C@@H](CO)O1` [Didanosine, reference compound] has a pIC50 (Homo sapiens, HeLa, 72 h) of 6.28.

Work on `C#C[C@@]1(CO)C=C[C@H](n2cc(C)c(=O)[nH]c2=O)O1` [Censavudine, reference compound] yielded a pIC50 (Homo sapiens, HeLa, 72 h) of 7.15.

`C#C[C@]1(CO)O[C@@H](n2cnc3c(N)nc(N)nc32)C[C@@H]1O` [compound 22] showed a pIC50 (72 hours) of 4.63.

`Nc1ccn([C@@H]2CS[C@H](CO)O2)c(=O)n1` [Lamivudine, reference compound] gave a pIC50 (Homo sapiens, HeLa, 72 h) of 6.18.

Compound `C=C[C@]1(CO)O[C@@H](n2ccc(N)nc2=O)C[C@@H]1O` [compound 24] has a pIC50 (Homo sapiens, HeLa, 72 h) of 8.00.

For `Cc1cn([C@H]2C[C@H](N=[N+]=[N-])[C@@H](CO)O2)c(=O)[nH]c1=O` [AZT, zidovudine, reference compound], the pIC50 (Homo sapiens, HeLa, 72 h) was 6.20.

`CC[C@]1(CO)O[C@@H](n2cnc3c(N)nc(N)nc32)C[C@@H]1O` [compound 27] gave a pIC50 (72 hours) of 8.59.

With `C=C1[C@H](CO)[C@@H](O)C[C@@H]1n1cnc2c(=O)[nH]c(N)nc21` [Entecavir, reference compound] the pIC50 (Homo sapiens, HeLa, 72 h) was 5.84.

With `C#C[C@]1(CO)O[C@@H](n2cc(C)c(=O)[nH]c2=O)C[C@@H]1O` [compound 2] the pIC50 (Homo sapiens, HeLa, 72 h) was 6.41.
